As a reminder, the Ki is the dissociation constant of the complex between target and ligand, obtained from inhibition or displacement. What is called EC50 is the concentration giving half of the maximal effect. A low value points to greater potency.

Three compounds from patent US20220289731A1, “MELANOCORTIN-4 RECEPTOR AGONISTS” (LG CHEM, LTD., priority 2019, published 2022) can be followed below.

Assay [1] concerns the target T1, MC4R (Homo sapiens, UniProt P32245). The assay can be described thus: Binding affinity, 125I-NDP-α-MSH displacement on membranes. More on the design: expressed in transfected cells; host or cells: HEK-293 cells; membranes collected. The following applies: HEK-293 MC4R membrane, 0.02 nM 125I-NDP-α-MSH. From the text:
Five subtypes of melanocortin receptor (MCR) in vivo are known, and it is known that MC4R, which is Subtype 4, is involved in energy metabolism and weight control. Since other MCR subtypes are involved in the regulation of various functions in vivo such as skin pigmentation, energy homeostasis, and exocrine functions, securing selectivity for MC4R of MC4R agonist compounds is very important in preventing possible side effects in the future. Therefore, the receptor binding abilities of MC4R agonists for each MCR subtype were measured.
After the CHO-K1 cell line expressing human recombinant MC1R and the HEK-293 cell lines expressing MC3R, MC4R and MCSR were established, membranes were collected from each cell line. In a 96-well cell culture plate, 3 μg MC1R membrane and 0.04 nM ^125I-NDP-α-MSH per well were reacted at 37° C. for two hours. 3 μg MC3R and MCSR membrane and 0.035 nM ^125I-NDP-α-MSH were reacted at 37° C. for one hour, and 3.12 μg MC4R membrane and 0.02 nM ^125I-NDP-α-MSH were reacted at 37° C. for two hours. At this time, 25 mM HEPES-KOH adsorption buffer (pH 7.0) containing MCR agonist diluted at each step concentration was added to each well and reacted. The reacted solution was transferred to a filter and washed with an adsorption buffer, and then radioactivity was measured. The value excluding the non-specific binding amount in the presence of 1 μM (MC1R) and 3 μM (MC3R, MC4R, MCSR) of NDP-α-MSH from each total binding amount was used as specific binding amounts of ^125I-NDP-α-MSH. The degree to which the ^125I-NDP-α-MSH specific binding was inhibited by the agonist diluted at each step concentration was measured. IC50 was expressed as the concentration of each agonist that inhibited specific binding of 50% of ^125I-NDP-α-MSH.
Target sequence in this assay (P32245 whole entry): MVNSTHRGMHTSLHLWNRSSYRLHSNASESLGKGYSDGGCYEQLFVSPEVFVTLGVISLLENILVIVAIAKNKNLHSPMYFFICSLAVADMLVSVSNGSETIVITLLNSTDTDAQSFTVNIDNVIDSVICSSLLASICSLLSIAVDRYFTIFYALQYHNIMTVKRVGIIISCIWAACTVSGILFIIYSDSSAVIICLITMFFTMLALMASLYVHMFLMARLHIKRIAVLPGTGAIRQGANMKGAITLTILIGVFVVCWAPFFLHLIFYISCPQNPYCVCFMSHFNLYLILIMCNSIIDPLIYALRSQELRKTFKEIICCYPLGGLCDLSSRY

The subject of assay [2] is mouse obesity model induced by high fat diet. The assay can be described thus: Mouse obesity model induced by high fat diet. In kind it is in vivo, C57BL/6Ntaconic mice. The following applies: oral once a day, high-fat-diet obese mice. The method, then:
The effect of melanocortin-4 receptor agonists on obesity was evaluated by using the mouse obesity model induced with a high fat diet.
Five-week-old male C57BL/6Ntaconic mice were fed with a 60 kcal % fat diet (D12492, Research Diet.) for 15 weeks to induce obesity. The compound of Example 1, the compounds of the comparative examples (A95 and A96), and sibutramine as a positive control were prepared in distilled water and orally administered to […] mouse obesity models induced by a high-fat diet once a day from day 1 to day 16. From Day 1 to Day 16, the body weight was measured once a day, the dietary intake was measured five times a week, and drinking water intake was measured twice a week. Blood glucose and glycated hemoglobin were measured on Day 15, and all animals were sacrificed on Day 17. Blood was collected through the abdominal vena cava, and the liver and epididymal adipose tissues were removed and weighed. The collected blood was placed in a heparin tube and centrifuged to separate plasma, and then plasma biochemical analysis was performed.

Assay [3] has as its target T1, MC4R. The assay can be described thus: Luciferase assay (HEK MC4R-Luc, CRE-LUC). The assay is classed as cell-based. Details: expressed in transfected cells. To be noted: HEK MC4R-Luc cells, 5 h incubation. The method, then:
In order to measure the agonist ability against MC4R (melanocortin-4 receptor), a cell line that permanently expresses the luciferase gene (CRE-LUC) under the control of MC4R and CRE (cAMP response element) was established. After a mammalian cell expression vector (pCDNA3 (Neo)) (Invitrogen) containing the MC4R gene was prepared, human embryonic kidney (HEK) cell lines were transformed by using Lipofectamine 2000 (Invitrogen) together with a vector (pCRE-Luc)(Stratagen) expressing a luciferase gene (CRE-LUC) under the control of a cAMP response element (CRE). Transformed cell lines (HEK MC4R-Luc) were incubated in a 37° C. incubator in the presence of 5% CO2 for 24 hours by using Dulbecco's Modified Eagles Medium (DMEM) containing 10% Heat-Inactivated Fetal Bovine Serum (GIBCO/BRL). The cell lines were incubated for four days in the presence of Dulbecco's Modified Eagles Medium (DMEM) containing 10 ml of selection medium (10% Heat-Inactivated Fetal Bovine Serum (GIBCO/BRL), 100 unit/ml of penicillin (GIBCO/BRL), 100 unit/ml of streptomycin (GIBCO/BRL), 800 μg/ml of Geneticin (G418) (GIBCO/BRL). The process of removing cells killed by the selection medium by replacing the medium with 10 ml of a new selection medium was repeated three times, once every 4 days. Individual colonies formed by the finally selected and propagated clones were transferred under a microscope to a 24-well cell culture plate containing 1 ml of selection medium per well and incubated for 4 days. Forskolin (SIGMA) was treated to a final concentration of 10 μM, and then incubated for five hours in a 37° C. incubator in the presence of 5% CO2. Each well was treated with 50 μl of a Bright-Glo luciferase reagent (Promega) and left at room temperature for 15 minutes, and then the luminescence of each well was measured by using a luminometer (Victor).
HEK MC4R-Luc cells were added to each well of a 96-well luminometer cell culture plate (Costar) to a size of 2.5×10^4 cells in 100 μl of a culture medium and then incubated in a 37° C. incubator in the presence of 6% CO2 for 18 hours. […] Each well was treated with 50 μl of a Bright-Glo luciferase reagent (Promega) and left at room temperature for five minutes, and then the luminescence of each well was measured by using a luminometer (Victor). […] EC0.5 MSH is expressed as a concentration that induces 50% of the maximum amount of luminescence that can be induced by NDP-α-MSH, and EC50 is expressed as a concentration that induces 50% of the maximum amount of luminescence that can be induced by each agonist. The measurements were measured using statistical software (Prizm).
Target sequence in this assay (P32245 whole entry, species assumed): as the sequence (P32245 whole entry) above

In assay [1], `CC(=O)N(C1CCC(C)(C)CC1)[C@H]1C[C@@H](C(=O)N2CCOCC2)N(C(=O)[C@@H]2CN(C(C)(C)C)C[C@H]2c2ccc(F)cc2F)C1.Cl` [Comparative Example 1 (A95), N-((3S,5S)-1-((3S,4R)-1-(tert-butyl)-4-(2,4-difluorophenyl)pyrrolidine-3-carbonyl)-5-(morpholine-4-carbonyl)pyrrolidin-3-yl)-N-(4,4-dimethylcyclohexyl)acetamide hydrochloride] yielded an inhibition constant Ki of 1400 nM. In addition, the “Difference in weight change rate to vehicle” value is reported as −4.8% in assay [2] (Day 12, 10 mg/kg) and −4.0% in assay [2] (Day 12, 30 mg/kg). This compound had an EC50 in assay [3] of 17.4 nM.

For the compound `CC(C)C(=O)N([C@H]1C[C@@H](C(=O)N2CCOCC2)N(C(=O)[C@@H]2CN(C(C)(C)C)C[C@H]2c2ccc(Cl)cc2)C1)[C@H]1CC[C@@H](C)CC1.Cl` [Example 1, N-((3S,5S)-1-((3S,4R)-1-(tert-butyl)-4-(4-chlorophenyl)pyrrolidine-3-carbonyl)-5-(morpholine-4-carbonyl)pyrrolidin-3-yl)-N-((1s,4R)-4-methylcyclohexyl)isobutyramide hydrochloride], the affinity in assay [1], expressed as Ki, was 65 nM. The compound further displayed an EC50 in assay [3] of 0.562 nM.

On to `CC(=O)N(C1CCC(C)(C)CC1)[C@H]1C[C@@H](C(=O)N2CCOCC2)N(C(=O)[C@@H]2CN(C(C)(C)C)C[C@H]2c2ccc(Cl)cc2)C1.Cl` [Comparative Example 2 (A96), N-((3S,5S)-1-((3S,4R)-1-(tert-butyl)-4-(4-chlorophenyl)pyrrolidine-3-carbonyl)-5-(morpholine-4-carbonyl)pyrrolidin-3-yl)-N-(4,4-dimethylcyclohexyl)acetamide hydrochloride], for which the Ki in assay [1] is 360 nM. Moreover, the “Difference in weight change rate to vehicle” value in assay [2] (Day 12, 10 mg/kg) is recorded as −0.2%; in assay [2] (Day 12, 30 mg/kg) it was −7.1%. For the same compound, a half-maximal effect in assay [3] (EC50) was put at 5.48 nM.
